From US20160222131A1, “ATRX AS A COMPANION DIAGNOSTIC FOR CDK4 INHIBITORS” (Memorial Sloan-Kettering Cancer Center, priority 2013, published 2016)
Non-standard residues stand in square brackets, D forms with d. No end group written: not given here. Arg(Me2s) = CN=C(NC)NCCC[C@H](N)C(=O)O; pS = N[C@@H](COP(=O)(O)O)C(=O)O

Key:
[1] = system: responder cell line LS8817; assay: Senescence-associated β-galactosidase after PD0332991 in ATRX knockdown cells; type: cell-based; settings: LS8817 infected with shRNA directed to ATRX vs shSCR, PD0332991 for seven days, FIG. 3
Protocol: To determine if ATRX plays a role in the senescence pathway induced by treatment with a CDK4 inhibitor, the expression of ATRX was genetically manipulated in the responder cell line, LS8817. Knockdown of ATRX (FIG. 2) was performed in LS8817 cells that were treated with PD0332991. The presence of ATRX in scrambled control shRNA (shSCR)-treated cells and the ATRX shRNA-treated cells was detected by the Bethyl antibody. The accumulation of […] associated β-galactosidase (SA-β-gal) shSCR-treated cells and the ATRX shRNA-treated cells was measured (FIG. 3). […] To determine if ATRX was also downstream of MDM2 loss, we subsequently infected the ATRX deficient cells with lentiviruses expressing shRNAs that targeted MDM2. In the responder cell line, LS8817, accumulation of SA-β-gal was still compromised even though the level of MDM2 was reduced (FIG. 4A). […] Thus, a form of ATRX was required for both PD0332991-induced loss of MDM2, and downstream of MDM2 loss to establish a senescent state.

[2] = system: non-responder cell line LS8107; assay: ATRX foci by immunofluorescence in non-responder cells treated with PD0332991; type: cell-based
Protocol: (§1) Cells were washed twice with PBS and fixed with 4% paraformaldehyde at room temperature for 20 minutes. Cells were again washed twice with PBS and treated with 0.1% triton X-100 in PBS for five minutes. Cells were again washed twice with PBS and blocked in 5% BSA in PBS for 30 minutes at room temperature. Cells were incubated with anti-ATRX antibody, obtained from Bethyl, Cat No. A301-045A, diluted at 1:2000 in PBS (stock is provided at 1 mg/ml) overnight at 4 degrees Celsius. The following day, cells were washed twice with PBS and incubated with Alexa Fluor-488 anti-rabbit secondary diluted at 1:500 in PBS (stock was provided at 2 mg/ml) for one hour at room temperature. Cells were washed twice with PBS and incubated with 0.1 ug/ml […] for 5 minutes at room temperature. Cells were washed three times with PBS and slides were mounted in Vectashield fluorescence mounting media. Slides were imaged using a Zeiss Axioplan 2 Upright Microscope. […] Immunofluorescence analysis using the Bethyl antibody was performed to determine if ATRX was recruited to foci. Immunofluorescence was performed as described in Example 1. In the responder cell line LS8817, further analysis was performed to determine the average number of foci present in responder cells undergoing senescence in response treatment with PD0332991. […] The distribution of the number of ATRX foci shifted to the right in responder cells treated with PD0332991 as compared to responder cells that were not treated. […] As shown in FIG. 16A-C, the increase in the number of ATRX foci in response to PD0332991 treatment in responder cells can be observed as early as day 2 subsequent to PD0332991 treatment. To determine whether ATRX foci can be used as a marker for indicating if non-responders underwent senescence in response to treatment with second drug in combination with a CDK inhibitor, non-responder cells, e.g., LS8107, was treated with PD0332991 followed by treatment with shRNA directed to MDM2 2 days post-PD0332991 treatment (FIG. 17).

[3] = system: responder cell line LS8817; assay: ATRX foci by immunofluorescence in responder cells treated with PD0332991; type: cell-based
Protocol: as §1, with “treatment.” for “treatment. To determine whether ATRX foci can be used as a marker for indicating if non-responders underwent senescence in response to treatment with second drug in combination with a CDK inhibitor, non-responder cells, e.g., LS8107, was treated with PD0332991 followed by treatment with shRNA directed to MDM2 2 days post-PD0332991 treatment (FIG. 17).”

[4] = system: Bethyl antibody; assay: Reactivity of ATRX C-terminal peptides with the Bethyl antibody; type: binding; settings: KLH-coupled peptides, FIG. 11
Excerpt: All peptides were generated by Thermo Fisher Scientific/Pierce Biotechnology and coupled to the carrier KLH. All conjugates were provided at >98% purity as determined by HPLC. Peptide sequences were confirmed by mass spec. Peptides RSK, 2490Ac and 2480Ra reacted with the Bethyl antibody (FIG. 11).

CC(=O)c1c(C)c2cnc(Nc3ccc(N4CCNCC4)cn3)nc2n(C2CCCC2)c1=O [PD0332991]
number of SA-β-gal positive cells [1]: greatly reduced | number of ATRX foci ([2]; LS8107, PD0332991 followed by shMDM2 2 days later, vs untreated or PD0332991 alone, FIG. 18): significant increase | average number of ATRX foci per cell ([2]; LS8107, PD0332991 treated vs not treated, FIG. 15): did not change | number of ATRX foci ([2]; PD0332991-treated non-responder cells, FIG. 13B): no increase | number of ATRX foci in responder cells undergoing senescence ([3]; LS8817, PD0332991 treated vs not treated, FIG. 14): significantly more | number of cells that contained 18 or more ATRX foci ([3]; LS8817, in response to PD0332991 treatment, FIG. 14): greatly increased | earliest time at which the increase in ATRX foci is observed ([3]; responder cells, subsequent to PD0332991 treatment, FIG. 16A-C): 2 days | number of ATRX foci ([3]; senescent responder cells, PD0332991 treatment, FIG. 13B): increased

APPMRSKNPGPSQGKSM [amino acids 2475-2492 of ATRX, no modification, coupled to the carrier KLH]
reactivity with the Bethyl antibody [4]: reacted

APPPMRSKNP [2480Rs] (APPPM[Arg(Me2s)]SKNP) [Peptide 2480Rs, amino acids 2475-2484 of ATRX, symmetrically methylated at arginine 2480]
reactivity with the Bethyl antibody [4]: did not react

APPPMRSKNP [Peptide 2480Ra, amino acids 2475-2484 of ATRX, asymmetrically methylated at arginine 2480]
reactivity with the Bethyl antibody [4]: reacted

PPPLQRAPPM [Peptide 2474, amino acids 2469-2479 of ATRX, no modification, coupled to KLH]
reactivity with the Bethyl antibody [4]: did not react

SKNPGPSQG (SKNPGP[pS]QG) [Peptide 2487P, amino acids 2481-2489 of ATRX, phosphorylated at serine 2487]
reactivity with the Bethyl antibody [4]: did not react

SKNPGPSQGKSM [Peptide 2490Ac, amino acids 2481-2492 of ATRX, acetylated at lysine 2490]
reactivity with the Bethyl antibody [4]: reacted
